Read-outs that look alike come from different tables or passages of the source.
How the values were obtained:
human HIPK1 = biological target: T1, human HIPK1 (Homo sapiens, UniProt Q86Z02); assay: HIPK1 enzyme assay (ADP-Glo); format: biochemical
T1 construct: Recombinant human HIPK1 (156-555); GST (N); purchased SignalChem H03-11G; host or cells: Sf9 insect cells
Method in brief: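 Recombinant GST-tagged HIPK1 (156-555, Sf9), 4 nM, preincubated 30 min at 25° C with compound in Tris pH 7.5/MgCl2/BSA/DTT, then reacted 90 min with 0.05 mg/ml MBP and 5 μM ATP. ADP formed read by ADP-Glo luminescence; IC50 from four-parameter logistic fit of % inhibition versus Max/Min controls.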

human GSK3 beta = biological target: T2, human GSK3 beta (Homo sapiens, UniProt P49841); assay: GSK3 beta enzyme assay (ADP-Glo); format: biochemical; conditions: ATP 25 μM, read-out: GSK3b IC50
T2 construct: Recombinant full-length human GSK3 beta (expressed in Sf9 insect cells with an N-terminal His tag); His (N); purchased SignalChem G09-10H; host or cells: Sf9 insect cells
T2 sequence (P49841 whole entry): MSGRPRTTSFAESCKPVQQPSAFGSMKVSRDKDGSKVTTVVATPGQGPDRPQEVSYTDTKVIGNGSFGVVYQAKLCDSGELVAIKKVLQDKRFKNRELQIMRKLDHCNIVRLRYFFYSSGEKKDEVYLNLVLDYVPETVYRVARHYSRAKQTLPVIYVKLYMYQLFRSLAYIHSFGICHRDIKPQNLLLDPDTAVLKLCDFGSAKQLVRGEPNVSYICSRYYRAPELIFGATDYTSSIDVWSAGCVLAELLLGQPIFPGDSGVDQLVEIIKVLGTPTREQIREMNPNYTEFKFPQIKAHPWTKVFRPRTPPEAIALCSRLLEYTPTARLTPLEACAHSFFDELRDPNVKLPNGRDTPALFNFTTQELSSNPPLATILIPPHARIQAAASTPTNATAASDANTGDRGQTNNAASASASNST
Method in brief: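 Full-length His-tagged human GSK3β from Sf9 cells (4 nM) preincubated 30 min at 25 °C with inhibitor in Tris pH 7.5/MgCl2/BSA/DTT, then reacted 60 min at 25 °C with 13 μM substrate peptide and 25 μM ATP. ADP measured by ADP-Glo luminescence; IC50 from four-parameter logistic fit of % inhibition.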

[1] = ADP-Glo, ATP 5 μM, read-out: HIPK1 IC50

T1 sequence (Q86Z02 156-555): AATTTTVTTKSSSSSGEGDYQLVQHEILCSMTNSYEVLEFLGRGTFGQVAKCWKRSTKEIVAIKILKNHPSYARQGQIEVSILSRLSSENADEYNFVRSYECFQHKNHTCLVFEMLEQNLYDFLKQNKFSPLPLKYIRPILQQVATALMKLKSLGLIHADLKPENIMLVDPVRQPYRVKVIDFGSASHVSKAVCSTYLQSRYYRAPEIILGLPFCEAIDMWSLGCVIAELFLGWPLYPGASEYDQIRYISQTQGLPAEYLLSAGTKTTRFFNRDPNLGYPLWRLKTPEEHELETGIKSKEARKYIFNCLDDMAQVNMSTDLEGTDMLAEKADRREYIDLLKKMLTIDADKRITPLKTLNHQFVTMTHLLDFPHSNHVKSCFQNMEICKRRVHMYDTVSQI

For CCN(C1=N/C(=C\c2ccc3c(c2)OCO3)C(=O)N1)c1ccccc1 [Example 4, (Z)-5-(benzo[d][1,3]dioxol-5-ylmethylene)-2-(ethyl(phenyl)amino)-3,5-dihydro-4H-imidazol-4-one], the IC50 (human HIPK1; [1]) was over 10 µM.
In the case of CC(=O)N(C1=N/C(=C\c2ccc3c(c2)OCO3)C(=O)N1)c1ccccc1 [Example 5, (Z)—N-(4-(benzo[d][1,3]dioxol-5-ylmethylene)-5-oxo-4,5-dihydro-1H-imidazol-2-yl)-N-phenylacetamide], the IC50 (human HIPK1) is reported as 0.1 to 1 µM.
CN(C1=N/C(=C\c2ccc3ncccc3c2)C(=O)N1)c1ccc2ncsc2c1 [Example 85, (Z)-2-(benzo[d]thiazol-6-yl(methyl)amino)-5-(quinolin-6-ylmethylene)-3,5-dihydro-4H-imidazol-4-one] was tested, and the IC50 (human GSK3 beta) was 1 to 10 µM and the IC50 (human HIPK1; [1]) was over 10 µM.
Work on CN(C1=N/C(=C\c2ccc3ncsc3c2)C(=O)N1)c1ccc2c(c1)ncn2C [Example 86, (Z)-5-(benzo[d]thiazol-6-ylmethylene)-2-(methyl(1-methyl-1H-benzo[d]imidazol-5-yl)amino)-3,5-dihydro-4H-imidazol-4-one] yielded an IC50 (human GSK3 beta) of 1 to 10 µM and an IC50 (human HIPK1; [1]) of 1 to 10 µM.
Compound CN(C1=N/C(=C\c2ccc3[nH]ccc3c2)C(=O)N1)c1ccc2ncsc2c1 [Example 87, (Z)-5-((1H-indol-5-yl)methylene)-2-(benzo[d]thiazol-6-yl(methyl)amino)-3,5-dihydro-4H-imidazol-4-one] has an IC50 (human GSK3 beta) of over 10 µM and an IC50 (human HIPK1; [1]) of over 10 µM.
With CN1C(=O)/C(=C/c2ccc3ncsc3c2)N=C1Nc1ccc2ncsc2c1 [Example 88, (Z)-2-(benzo[d]thiazol-6-ylamino)-5-(benzo[d]thiazol-6-ylmethylene)-3-methyl-3,5-dihydro-4H-imidazol-4-one] the IC50 (human GSK3 beta) was over 10 µM and the IC50 (human HIPK1; [1]) was over 10 µM.
For COCCN(C1=N/C(=C\c2ccc3ncsc3c2)C(=O)N1)c1ccc2ncsc2c1 [Example 89, (Z)-2-(benzo[d]thiazol-6-yl(2-methoxyethyl)amino)-5-(benzo[d]thiazol-6-ylmethylene)-3,5-dihydro-4H-imidazol-4-one], the IC50 (human GSK3 beta) was 1 to 10 µM and the IC50 (human HIPK1; [1]) was 1 to 10 µM.
Cc1nc2ccc(NC3=N/C(=C\c4ccc5ncsc5c4)C(=O)N3)cc2s1 [Example 90, (Z)-5-(benzo[d]thiazol-6-ylmethylene)-2-((2-methylbenzo[d]thiazol-6-yl)amino)-3,5-dihydro-4H-imidazol-4-one] was tested, and the IC50 (human GSK3 beta) was over 10 µM and the IC50 (human HIPK1; [1]) was over 10 µM.
CC(=O)N(C1=N/C(=C\c2ccc3ncsc3c2)C(=O)N1)c1ccc2ncsc2c1 [Example 91, (Z)—N-(benzo[d]thiazol-6-yl)-N-(4-(benzo[d]thiazol-6-ylmethylene)-5-oxo-4,5-dihydro-1H-imidazol-2-yl)acetamide] was tested, and the IC50 (human GSK3 beta) was over 10 µM and the IC50 (human HIPK1; [1]) was 0.1 to 1 µM.
O=C1NC(Nc2ccc3ncsc3c2)=N/C1=C\c1cncs1 [Example 92, (Z)-2-(benzo[d]thiazol-6-ylamino)-5-(thiazol-5-ylmethylene)-3,5-dihydro-4H-imidazol-4-one] showed an IC50 (human GSK3 beta) of 0.1 to 1 µM and an IC50 (human HIPK1; [1]) of 0.1 to 1 µM.
In the case of Cn1cnc2ccc(NC3=N/C(=C\c4ccc5ncsc5c4)C(=O)N3)cc21 [Example 93, (Z)-5-(benzo[d]thiazol-6-ylmethylene)-2-((1-methyl-1H-benzo[d]imidazol-6-yl)amino)-3,5-dihydro-4H-imidazol-4-one], the IC50 (human GSK3 beta) is reported as 0.1 to 1 µM and the IC50 (human HIPK1; [1]) is reported as 0.1 to 1 µM.
For O=C1NC(Nc2ccc3ncsc3c2)=N/C1=C\c1ccc2nccnc2c1 [Example 94, (Z)-2-(benzo[d]thiazol-6-ylamino)-5-(quinoxalin-6-ylmethylene)-3,5-dihydro-4H-imidazol-4-one], the IC50 (human GSK3 beta) was over 10 µM and the IC50 (human HIPK1; [1]) was over 10 µM.
In the case of O=C1NC(Nc2ccc3ncsc3c2)=N/C1=C\c1ccc2cn[nH]c2c1 [Example 95, (Z)-5-((1H-indazol-6-yl)methylene)-2-(benzo[d]thiazol-6-ylamino)-3,5-dihydro-4H-imidazol-4-one], the IC50 (human GSK3 beta) is reported as over 10 µM and the IC50 (human HIPK1; [1]) is reported as over 10 µM.
Work on O=C1NC(=S)N/C1=C\c1ccc2sccc2c1 [Example 96, (Z)-5-(benzo[b]thiophen-5-ylmethylene)-2-thioxoimidazolidin-4-one] yielded an IC50 (human GSK3 beta) of 1 to 10 µM and an IC50 (human HIPK1; [1]) of over 10 µM.
Compound O=C1NC(Nc2ccc3nc[nH]c3c2)=N/C1=C\c1ccc2ncsc2c1 [Example 97, (Z)-2-((1H-benzo[d]imidazol-6-yl)amino)-5-(benzo[d]thiazol-6-ylmethylene)-3,5-dihydro-4H-imidazol-4-one] has an IC50 (human GSK3 beta) of 1 to 10 µM and an IC50 (human HIPK1; [1]) of 0.1 to 1 µM.
Work on Nc1ccc(NC2=N/C(=C\c3ccc4ncsc4c3)C(=O)N2)cc1 [Example 98, (Z)-2-((4-aminophenyl)amino)-5-(benzo[d]thiazol-6-ylmethylene)-3,5-dihydro-4H-imidazol-4-one] yielded an IC50 (human GSK3 beta) of 0.1 to 1 µM and an IC50 (human HIPK1; [1]) of 0.1 to 1 µM.
O=C1NC(N(Cc2ccccc2)c2ccc3ncsc3c2)=N/C1=C\c1ccc2ncsc2c1 [Example 99, (Z)-2-(benzo[d]thiazol-6-yl(benzyl)amino)-5-(benzo[d]thiazol-6-ylmethylene)-3,5-dihydro-4H-imidazol-4-one] showed an IC50 (human GSK3 beta) of over 10 µM and an IC50 (human HIPK1; [1]) of over 10 µM.
CC(C)Nc1nc2ccc(NC3=N/C(=C\c4ccc5ncsc5c4)C(=O)N3)cc2s1 [Example 100, (Z)-5-(benzo[d]thiazol-6-ylmethylene)-2-((2-(isopropylamino)benzo[d]thiazol-6-yl)amino)-3,5-dihydro-4H-imidazol-4-one] showed an IC50 (human GSK3 beta) of 0.1 to 1 µM and an IC50 (human HIPK1; [1]) of over 10 µM.
Compound O=C1NC(Nc2ccc3sccc3c2)=N/C1=C\c1ccc2ncsc2c1 [Example 101, (Z)-2-(benzo[b]thiophen-5-ylamino)-5-(benzo[d]thiazol-6-ylmethylene)-3,5-dihydro-4H-imidazol-4-one] has an IC50 (human GSK3 beta) of over 10 µM and an IC50 (human HIPK1; [1]) of over 10 µM.

From patent US12643887B2, “Heterocyclic derivatives with cardiomyocyte proliferation activity for treatment of heart diseases” (Tongji University, priority 2019, dated 2026)
